Legend:
sperm [1] = details: as dead quenching dye; cited from earlier work
[2] = system: membrane compromised sperm; test: Added dead quenching capacity from bivariate plots (Example 10, FIG. 8); assay type: cell-based, bulls; details: with 25 μM yellow food dye No. 6, red food dye No. 4 at highest tested concentration
Method: (§1) Eight bulls were collected, including 4 Jersey bulls, 3 Holstein bulls and one mixed dairy-breed. The ejaculates were collected at concentrations ranging from 1700×10^6 sperm/ml to 1100×10^6 sperm/ml and all had progressive motility of a least 60%.
Sperm from each bull was extended to 160 million per ml with a first buffer, (TALP described in table 1 at a pH 7.4) and stained with 64 μM (164/2 mL) Hoechst 33342 at 34° C. Additionally, Phenol Red, Red Food Dye No. 2, Red Food Dye No. 3, and Red Food Dye No. 4, were each tested as split enhancing dyes in the first buffer at concentrations of 15 μM, 45 μM and 125 μM. For each bull, each concentration of each dye was incubated for periods of 30 minutes, 45 minutes, 60 minutes, and 75 minutes were utilized before a second buffer with an additional dye was applied. […]
Sorting was performed on a MoFlo SX (Beckman Coulter, USA) in substantially the same manner described in Example 5. After calibration, screen shots of sorting histograms were taken and split quality was measured by peak to valley ratios in the same way described in Example 5 with reference to FIG. 4 and the resulting data, averaged over all 8 bulls, is found in Tables 18-21. […]

sperm [3] = test: Split quality, split enhancing dyes at various concentrations and incubation times (Example 10); assay type: cell-based, bulls; details: for split enhancing effect compared to control: 15, 45, 125 μM, 30-75 minutes, averaged over 8 bulls; for peak to valley ratio, Average 8 bulls: 25 μM yellow food dye No. 6
Method: as §1
Sperm from each bull was extended to 160 million per ml with a first buffer, (TALP described in table 1 at a pH 7.4) and stained with 64 μM (164/2 mL) Hoechst 33342 at 34° C. Additionally, Phenol Red, Red Food Dye No. 2, Red Food Dye No. 3, and Red Food Dye No. 4, were each tested as split enhancing dyes in the first buffer at concentrations of 15 μM, 45 μM and 125 μM. For each bull, each concentration of each dye was incubated for periods of 30 minutes, 45 minutes, 60 minutes, and 75 minutes were utilized before a second buffer with an additional dye was applied.
Each sample was then extended in an equal volume of a second buffer which comprised a 5.5 pH modified TALP having 25 μM yellow food dye No. 6 (acting as a dead quenching dye) in addition to the split enhancing dye provided in the first buffer. The second buffer was applied to every sample at 30 minutes, 45 minutes, 60 minutes, and 75 minutes. A control was additionally taken without any split enhancing dye for every bull at every time interval.
Sorting was performed on a MoFlo SX (Beckman Coulter, USA) in substantially the same manner described in Example 5. After calibration, screen shots of sorting histograms were taken and split quality was measured by peak to valley ratios in the same way described in Example 5 with reference to FIG. 4 and the resulting data, averaged over all 8 bulls, is found in Tables 18-21. Additionally, screen shots of bivariate plots were taken to measure the added dead quenching capacity of the mixed dead quenching and split enhancing dyes.

sperm [4] = test: Split quality, red food dye No. 3 as added split enhancing dye (Example 9); assay type: cell-based, bull; details: with yellow food dye No. 6 or red food dye No. 40 as dead quenching dye
Method: A single bull was collected for the Example 9 in the same way described in Example 5. […] The second buffer was additionally treated with concentrations of 25, 50, 100, 150, 300, or 600 μM of red food dye No. 3, as indicated in Table 6. Sorting was performed on a MoFlo SX (Beckman Coulter, USA) in substantially the same manner described in Example 6. After calibration, screen shots of sorting histograms were taken and the split quality was measured in terms of peak to valley ratios in the same way described in Example 5 with reference to FIG. 4 and the resulting data is found in Table 17.

[5] = system: membrane compromised sperm; test: Dead gate intensity divided by live gate intensity, flow cytometer (Example 5); assay type: cell-based
Method: (§2) A single Jersey bull was collected at an initial sperm concentration 1900×10^6 sperm/ml in a volume of 5 ml. The progressive motility of the sperm was 65% with normal morphologies greater than 65%.
(§3) The entire ejaculate of sperm was suspended in first staining buffer, specifically a 7.4 pH TALP described in TABLE 1, to a concentration of 160×10^6 sperm per mL (determined on nucleocounter) and divided into three aliquots of about 20 mL into 50 mL Falcon tubes and pre-warmed for 10 minutes at 34° C. The DNA selective fluorescent dye, Hoechst 33342, was added and samples were held at 34° C. for 60 minutes. 3 different Hoechst 33342 Stain Levels were used=12 μL, 14 μL and 16 μL per 2 mL (effective concentrations of 48 μM, 56 μM, 64 μM).
(§4) Preparation of the second buffer including the dead quenching dye—A 2 L bag of TALP, described in TABLE 1, was adjusted to pH 5.60 using HCl and then sterile filtered. […] For each of the four dyes tested (R40-red food dye No. 40, Y5—yellow food dye No. 5, Y6—yellow food dye No. 6 and PR—phenol red), an appropriate number of milligrams of each powder was placed in a Erlenmeyer Flask and then an exact amount of TALP pH 5.60 was added to create a 250 μM concentration of the dye. The result was a working TALP stock for each dye with a 100% (125 μM) relative amount of dye 50% relative (62.5 μM) and 20% relative (25 μM) solutions were made by dilution of 100% by TALP pH 5.60.
(§5) Single tubes of stained sperm at each of the three Hoechst 33342 concentrations were treated with TALP pH 5.60 which had no dead quenching dye present. Single tubes using Vitamin B12 (red colored chemical) with stock concentration of 15 μM (12% relative) were tested.
(§6) After this “bulk” staining for 60 minutes, 1 mL aliquots of stained sperm were combined with 1 mL aliquots of the second buffer including the dead quenching dyes. Samples sat for approximately 30 minutes at room temperature before being analyzed on a MoFlo SX (Beckman Coulter, USA) sperm sorting flow cytometer. Event rates were held as close to 13,000 as possible at the point of data acquisition.
(§7) The total number of individual treatments was 42 tubes, each containing 2 mL of stained sample. The alignment of the sorter was established using nuclei and confirmed with live sample from the 50% Red 40 series. Once good alignment was established, each tube was placed on the sorter long enough to establish a stabile dead gate population (about 30 seconds) and then a screenshot was taken and saved as a .jpeg image. This approach of rapidly documenting each sample is used to assure the most consistent alignment between all samples. Realignment of sorter will not cause differences in the intensities of live and dead gate populations but will cause differences in split quality.
(§8) FIG. 4 illustrates an example histogram. The ratio of dead gate intensity divided by live gate intensity is created by dividing the distance “A” by the distance “B” shown as a percentage. Lower values mean higher levels of quenching. The ratio of peak height divided by valley height is created by dividing the distance “C” by the distance “D”. A value of 1.00 means “no split” while higher values mean “better splits”.

[6] = system: membrane compromised sperm; test: Dead gate intensity, yellow 5 and phenol red at higher concentrations (Example 6); assay type: cell-based, Jersey bull; details: for Intensity: Hoechst 12 μL/2 mL
Method: (§9) A single Jersey bull was collected at an initial sperm concentration 1810×10^6 sperm/ml in a volume of 3.9 ml. The progressive motility of the sperm was 65% with normal morphologies greater than 50%.
(§10) Sperm were suspended at 320 million per mL in 30 mL a first buffer, (TALP described in table 1 at a pH 7.4) with 12 μL of Hoechst 33342 per 2 mL (48 μM) of stain and incubated for 1 hour at 34° C. Stained sperm was then placed as 1 mL aliquots in sample tubes and a 1 mL volume of the appropriate TALP was added. The same second buffer was used as example 1, namely a modified 5.60 pH TALP.
(§11) Each of the stained samples was sorted on a MoFlo SX (Beckman Coulter, USA) as described in Example 6. Screen shots were taken and the dead gate intensity and the split quality were measured in the same way described in Example 1 and recorded in TABLE 14.

sperm [7] = test: Split quality PV (Example 6); assay type: cell-based, Jersey bull; details: Hoechst 12 μL/2 mL, resulting pH 6.70
Method: as §9, §10, §11

sperm [8] = test: Split quality, height of peak divided by height of valley (Example 5); assay type: cell-based, Jersey bull; details: Hoechst 16 μL/2 mL
Method: as §2, §3, §4, §5, §6, §7, §8

[9] = split enhancing dye 125 μM, 30 Min

CC[N+](C)(CC)CCC[n+]1c(-c2ccccc2)c2cc(N)ccc2c2ccc(N)cc21.[I-].[I-] [propidium iodine]
toxicity to sperm (sperm [1]): toxic to sperm

O=S(=O)([O-])c1ccc2c(N=Nc3ccc(S(=O)(=O)[O-])c4ccccc34)c(O)c(S(=O)(=O)[O-])cc2c1.[Na+].[Na+].[Na+] [Red 2]
dead quenching capacity in combination with dead quenching dye [2]: strong dead quenching capacity
split enhancing effect compared to control (sperm [3]): did not provide a split enhancing, or noise reducing effect
peak to valley ratio, Average 8 bulls (sperm [3]; split enhancing dye 45 μM, 30 Min): 1.00
peak to valley ratio, Average 8 bulls (sperm [3]; [9]): 1.00
peak to valley ratio, Average 8 bulls (sperm [3]; split enhancing dye 125 μM, 45 Min): 1.00
peak to valley ratio, Average 8 bulls (sperm [3]; split enhancing dye 125 μM, 60 Min): 1.00
peak to valley ratio, Average 8 bulls (sperm [3]; split enhancing dye 125 μM, 75 Min): 1.00

Cc1c(C(=O)O)c(O)cc2c1C(=O)c1c(O)c(C3O[C@H](CO)[C@@H](O)[C@H](O)[C@H]3O)c(O)c(O)c1C2=O (stereo in doubt) [Red 4, carmine]
dead quenching capacity in combination with dead quenching dye [2]: significant increase in quenching the dead subpopulation
split enhancing effect compared to control (sperm [3]): provides distinct improvements at all concentrations and at all times

O=C(O)c1ccccc1-c1c2cc(I)c(=O)c(I)c-2oc2c(I)c(O)c(I)cc12 [Red 3, 2-(6-Hydroxy-2,4,5,7-tetraiodo-3-oxo-xanthen-9-yl)benzoic acid]
effect of increasing concentration on split quality (sperm [4]): improved the split quality up to the concentration of 300 μM
split enhancing effect compared to control (sperm [3]): provided initial split enhancements at 15 μM and 45 μM
peak to valley ratio, Average 8 bulls (sperm [3]; [9]): 1.00

O=C([O-])C1=NN(c2ccc(S(=O)(=O)[O-])cc2)C(=O)/C1=N/Nc1ccc(S(=O)(=O)[O-])cc1.[Na+].[Na+].[Na+] [Yellow 5, Trisodium (4E)-5-oxo-1-(4-sulfonatophenyl)-4-[(4-sulfonatophenyl)hydrazono]-3-pyrazolecarboxylate]
Dead Intensity ([5]; dye 25 μM, Average over Hoechst levels): 90%
Dead Intensity ([5]; dye 25 μM, Hoechst 12 μL/2 mL): 90%
Dead Intensity ([5]; dye 25 μM, Hoechst 14 μL/2 mL): 90%
Dead Intensity ([5]; dye 25 μM, Hoechst 16 μL/2 mL): 90%
Dead Intensity ([5]; dye 62.5 μM, Average over Hoechst levels): 74%
Dead Intensity ([5]; dye 62.5 μM, Hoechst 12 μL/2 mL): 74%
Dead Intensity ([5]; dye 62.5 μM, Hoechst 14 μL/2 mL): 77%
Dead Intensity ([5]; dye 62.5 μM, Hoechst 16 μL/2 mL): 70%
Dead Intensity ([5]; dye 125 μM, Average over Hoechst levels): 57%
Dead Intensity ([5]; dye 125 μM, Hoechst 12 μL/2 mL): 54%
Dead Intensity ([5]; dye 125 μM, Hoechst 14 μL/2 mL): 63%
Dead Intensity ([5]; dye 125 μM, Hoechst 16 μL/2 mL): 55%
ability to create a dead gate population (ordering of the four dyes) ([5]; from dead and live intensity data of Table 13): better quenching properties than phenol red
amount of dye needed for a similar dead gate intensity ratio as red food dye No. 40 and yellow food dye No. 6 [6]: about five
Intensity ([6]; dye 125 μM, resulting pH 6.70): 63%
Intensity ([6]; dye 250 μM, resulting pH 6.70): 48%
Intensity ([6]; dye 500 μM, resulting pH 6.70): 43%
Intensity ([6]; dye 750 μM, resulting pH 6.70): <30%
Intensity ([6]; dye 875 μM, resulting pH 6.70): <30%
Intensity ([6]; dye 1250 μM, second buffer pH 5.60, resulting pH 6.70): <30%
PV (sperm [7]; dye 125 μM): 1.00
PV (sperm [7]; dye 250 μM): 1.00
PV (sperm [7]; dye 500 μM): 1.00
PV (sperm [7]; dye 750 μM): 1.00
PV (sperm [7]; dye 875 μM): 1.00
PV (sperm [7]; dye 1250 μM): 1.00
Height of Peak/Height of Valley (sperm [8]; dye 25 μM): 1.00
Height of Peak/Height of Valley (sperm [8]; dye 62.5 μM): 1.00

Source: patent US9581587B2, “Sperm staining and sorting methods” (INGURAN, LLC, priority 2011, dated 2017)
